In US7511041B2, “Fused azole-pyrimidine derivatives” (Bayer Pharmaceuticals Corporation, priority 2002, dated 2009):

Key:
[1] = molecular target: T1, Recombinant human PI3Kγ (full length human PI3K p110γ) (Homo sapiens, UniProt P48736); assay: Kinase assay of PI3Kγ (solid-phase lipid kinase assay); format: biochemical; conditions: in vitro PI3K-γ inhibitory activity, class symbols A-D; read-out: in vitro PI3K-gamma
T1 construct: full length human PI3K p110γ fused with a His6-tag at the C-terminus; His6 (C); purchased ALEXIS BIOCHEMICALS #201-055-C010; host or cells: S. frugiperda 9 insect cells
T1 sequence (P48736 whole entry, the tested form may be a part): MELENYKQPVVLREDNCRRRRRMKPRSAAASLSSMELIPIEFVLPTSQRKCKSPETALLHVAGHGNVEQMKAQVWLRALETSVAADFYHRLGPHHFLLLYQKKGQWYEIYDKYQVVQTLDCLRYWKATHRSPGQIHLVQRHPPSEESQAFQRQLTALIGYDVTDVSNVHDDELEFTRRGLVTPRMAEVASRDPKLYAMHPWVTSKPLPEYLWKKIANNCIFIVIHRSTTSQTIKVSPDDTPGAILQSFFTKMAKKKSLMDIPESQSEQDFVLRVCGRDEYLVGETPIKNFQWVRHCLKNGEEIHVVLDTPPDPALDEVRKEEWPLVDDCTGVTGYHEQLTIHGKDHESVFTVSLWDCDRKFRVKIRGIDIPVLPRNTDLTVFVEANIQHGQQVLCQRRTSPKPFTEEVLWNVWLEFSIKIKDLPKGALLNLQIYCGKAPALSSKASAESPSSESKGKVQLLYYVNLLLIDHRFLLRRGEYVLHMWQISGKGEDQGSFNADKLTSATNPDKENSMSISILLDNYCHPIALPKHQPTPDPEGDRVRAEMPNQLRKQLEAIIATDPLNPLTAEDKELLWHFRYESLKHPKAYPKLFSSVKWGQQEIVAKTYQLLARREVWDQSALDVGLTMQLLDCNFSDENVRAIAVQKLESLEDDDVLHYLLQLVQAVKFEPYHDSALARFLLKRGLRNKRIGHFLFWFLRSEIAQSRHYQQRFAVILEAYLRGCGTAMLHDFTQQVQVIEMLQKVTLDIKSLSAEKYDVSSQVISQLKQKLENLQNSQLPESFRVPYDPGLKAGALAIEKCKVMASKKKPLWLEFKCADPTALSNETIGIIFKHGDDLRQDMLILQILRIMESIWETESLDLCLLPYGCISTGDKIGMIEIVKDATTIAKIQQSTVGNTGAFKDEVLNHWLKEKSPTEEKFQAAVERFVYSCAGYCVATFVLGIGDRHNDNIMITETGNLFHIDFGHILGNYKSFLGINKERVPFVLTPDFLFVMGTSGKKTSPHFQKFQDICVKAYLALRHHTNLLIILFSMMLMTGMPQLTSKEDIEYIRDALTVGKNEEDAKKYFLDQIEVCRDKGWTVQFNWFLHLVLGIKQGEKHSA

| IC50 [1] [nM] | melting point | SMILES |
| --- | --- | --- |
| > 2000 | 224 to 226 °C | COC(=O)c1cccc(C(=O)NC2=Nc3ccccc3C3=NCCN23)c1 [Example 2-272] |
| > 2000 | 253 to 255 °C | COC(=O)c1ccc(C(=O)NC2=Nc3ccccc3C3=NCCN23)cc1 [Example 2-273] |
| > 2000 | 289 °C (dec.) | CCOC(=O)c1cc(C(=O)NC2=Nc3ccccc3C3=NCCN23)cc(C(=O)OCC)c1 [Example 2-274] |
| 500 to 2000 | 204 to 205 °C | O=C(NC1=Nc2ccccc2C2=NCCN12)c1ccccn1 [Example 2-276] |
| 500 to 2000 | 224 to 225 °C | O=C(NC1=Nc2ccccc2C2=NCCN12)c1ccncc1 [Example 2-278] |
| > 2000 | 219 to 220 °C | O=C(NC1=Nc2ccccc2C2=NCCN12)c1ccc(C(F)(F)F)nc1 [Example 2-280] |
| 500 to 2000 | > 250 °C | Cl.O=C(NC1=Nc2ccccc2C2=NCCN12)c1ccc(C(F)(F)F)nc1 [Example 2-281] |
| > 2000 | 249 °C (dec.) | CN(C)c1ccc(C(=O)NC2=Nc3ccccc3C3=NCCN23)cn1 [Example 2-282] |
| 500 to 2000 | 311 °C (dec.) | CN(C)c1ccc(C(=O)NC2=Nc3ccccc3C3=NCCN23)cn1.Cl [Example 2-283] |
| > 2000 | 346 °C (dec.) | Cl.O=C(NC1=Nc2ccccc2C2=NCCN12)c1cccnc1O [Example 2-284] |
| 500 to 2000 | 198 to 199 °C | COc1ncccc1C(=O)NC1=Nc2ccccc2C2=NCCN12 [Example 2-285] |
| > 2000 | 244 to 245 °C | COc1ccc(C(=O)NC2=Nc3ccccc3C3=NCCN23)c(OC)n1 [Example 2-286] |
| 500 to 2000 | 210 °C (dec.) | COc1ccc(C(=O)NC2=Nc3ccccc3C3=NCCN23)c(OC)n1.Cl [Example 2-287] |
| > 2000 | 233 to 234 °C | CSc1ncccc1C(=O)NC1=Nc2ccccc2C2=NCCN12 [Example 2-288] |
| 500 to 2000 | 298 to 299 °C | CSc1ncccc1C(=O)NC1=Nc2ccccc2C2=NCCN12.Cl [Example 2-289] |
| 100 to 500 | 213 to 214 °C | Cc1ccc(C(=O)NC2=Nc3ccccc3C3=NCCN23)c(Cl)n1 [Example 2-290] |
| 100 to 500 | 246 to 247 °C | O=C(NC1=Nc2ccccc2C2=NCCN12)c1ccc(Cl)nc1 [Example 2-291] |
| 500 to 2000 | 267 to 268 °C | O=C(NC1=Nc2ccccc2C2=NCCN12)c1cnccn1 [Example 2-292] |
| 500 to 2000 | 257 °C (dec.) | Cc1cnc(C(=O)NC2=Nc3ccccc3C3=NCCN23)cn1 [Example 2-294] |
| 500 to 2000 | 128 to 129 °C | Cn1cccc1C(=O)NC1=Nc2ccccc2C2=NCCN12 [Example 2-296] |
| 500 to 2000 | 350 °C (dec.) | O=C(NC1=Nc2ccccc2C2=NCCN12)c1ccco1 [Example 2-298] |
| 500 to 2000 | 311 °C (dec.) | Cl.O=C(NC1=Nc2ccccc2C2=NCCN12)c1ccco1 [Example 2-299] |
| > 2000 | 198 °C (dec.) | O=C(NC1=Nc2ccccc2C2=NCCN12)c1ccc(Cl)s1 [Example 2-301] |
| 500 to 2000 | 192 to 193 °C | Cc1ccc(C(=O)NC2=Nc3ccccc3C3=NCCN23)s1 [Example 2-302] |
| > 2000 | 286 to 287 °C | O=C(NC1=Nc2ccccc2C2=NCCN12)c1ccc([N+](=O)[O-])s1 [Example 2-303] |
| > 2000 | 269 to 270 °C | O=C(NC1=Nc2ccccc2C2=NCCN12)c1csc([N+](=O)[O-])c1 [Example 2-305] |

| SMILES | IC50 [1] [nM] | melting point |
| --- | --- | --- |
| O=C(NC1=Nc2ccccc2C2=NCCN12)c1ccco1.O=C(O)C(F)(F)F [Example 2-300] | 100 to 500 | 230 to 232 °C |
